# Measured values reported in patent US8236951B2, “Thioxanthine derivatives as myeloperoxidase inhibitors” (AstraZeneca AB, priority 2002, dated 2012).
# Molecular target: T1, human MPO (Homo sapiens, UniProt P05164)
# T1 sequence (P05164 49-745): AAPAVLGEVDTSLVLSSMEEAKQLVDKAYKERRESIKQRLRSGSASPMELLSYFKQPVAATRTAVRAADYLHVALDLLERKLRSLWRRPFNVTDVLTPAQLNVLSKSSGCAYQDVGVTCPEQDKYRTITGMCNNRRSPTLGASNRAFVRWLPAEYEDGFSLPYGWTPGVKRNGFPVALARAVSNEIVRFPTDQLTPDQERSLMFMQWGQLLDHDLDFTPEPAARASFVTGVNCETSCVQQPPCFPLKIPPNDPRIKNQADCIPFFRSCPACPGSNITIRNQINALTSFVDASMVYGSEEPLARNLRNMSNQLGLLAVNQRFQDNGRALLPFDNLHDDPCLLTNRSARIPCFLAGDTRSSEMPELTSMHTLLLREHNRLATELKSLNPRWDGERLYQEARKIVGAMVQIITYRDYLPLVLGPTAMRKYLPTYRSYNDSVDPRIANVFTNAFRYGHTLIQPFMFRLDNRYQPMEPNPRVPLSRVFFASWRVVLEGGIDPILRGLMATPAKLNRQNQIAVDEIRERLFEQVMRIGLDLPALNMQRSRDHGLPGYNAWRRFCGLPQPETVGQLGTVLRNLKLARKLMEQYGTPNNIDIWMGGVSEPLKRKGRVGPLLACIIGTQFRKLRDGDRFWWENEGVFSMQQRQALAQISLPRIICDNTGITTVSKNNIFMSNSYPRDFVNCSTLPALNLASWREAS
# Assay: MPO inhibition screen (TMB oxidation, absorbance at about 650 nM)
# Assay type: biochemical
# Conditions: human MPO 2.5 nM, H2O2 100 μM, assay buffer pH 6.5, room temperature
# Experimental: The pharmacological activity of compounds according to the invention was tested in the following screen:
# Assay buffer: 20 mM sodium/potassium phosphate buffer pH 6.5 containing 10 mM taurine and 100 mM NaCl.
# Then 50 μl of H202 (final concentration 100 μM), or assay buffer alone as a control, were added for 10 minutes at room temperature. […] IC50 values were then determined using standard procedures.
row,SMILES,IC50
1,"O=c1[nH]c(=S)n(CC2CCCO2)c2nc[nH]c12 (racemic) [Example 14, 3-(2-Tetrahydrofuryl-methyl)-2-thioxanthine]",0.51 µM
2,"O=c1[nH]c(=S)n(CC2CCCCC2)c2nc[nH]c12 [Example 10, 3-Cyclohexylmethyl-2-thioxanthine]",0.53 µM
3,"COCCn1c(=S)[nH]c(=O)c2[nH]cnc21 [Example 15, 3-(2-Methoxy-ethyl)-2-thioxanthine]",0.44 µM
4,"COc1ccc(Cn2c(=S)[nH]c(=O)c3[nH]cnc32)cc1 [Example 18, 3-(4-Methoxybenzyl)-2-thioxanthine]",0.49 µM
5,"O=c1[nH]c(=S)n(CCc2ccccc2)c2nc[nH]c12 [Example 20, 3-Phenethyl-2-thioxanthine]",0.96 µM

# More lines, now with the values ahead:
row,IC50,SMILES
1,0.87 µM,"CC(C)Cn1c(=S)[nH]c(=O)c2[nH]cnc21 [Example 6, 3-Isobutyl-2-thioxanthine]"
2,2.94 µM,"O=c1[nH]c(=S)n(CCCN2CCOCC2)c2nc[nH]c12 [Example 16, 3-(3-(1-Morpholinyl)-propyl)-2-thioxanthine]"
3,7.57 µM,"O=c1[nH]c(=S)n(Cc2ccco2)c2nc[nH]c12 [Example 17, 3-(2-Furyl-methyl)-2-thioxanthine]"
